For orientation: IC50 means the concentration that gives 50% inhibition.

In one data set the test system is A375 melanoma. The experiment in a line: Cancer cell proliferation, A375. The data set is classed as cell-based. The following applies: Homo sapiens. How it is done:
(§1) To determine the breadth of efficacy in cancers, we examined the efficacy of a range of TRPM7 inhibitors for their ability to inhibit cell proliferation in cancer cell lines. Representative figures are included as examples.
(§2) Cells (Table 1) were grown to 70% confluency, trypsinized, counted, and seeded in 96-well flat-bottom plates at a final concentration of 2.5×10^3-5.0×10^3 cells/well in growth media containing 5% FBS (Day 0). Other well sizes and cell densities were used successfully as well. Cells were allowed to incubate in growth media for 24 hours to allow for maximum adhesion. Treatment with the test agent began on Day 1 and continued for 72 hours either with or without retreatment. At the 72 hour time point, viable cell numbers are quantified by the CellTiter-Glo® cell viability assay as described above, or using standard MTT, SRB or BrDU assays. Experiments were repeated at least twice with the same concentrations to determine growth inhibitory activity.
(§3) Data Collection—For the cell proliferation studies, data from each experiment was collected and expressed as % Cell Growth using the following calculation: % Cell Growth=(ftest/fvehicle)×100 Where ftest is the luminescent signal of the tested sample, and fvehicle is the luminescence of the vehicle in which the drug is dissolved (or appropriate measure for the other viability/proliferation measures). Dose response graphs and IC50 values were generated using standard software using the following variable slope equation: […]

The next data set relates to B16F10 melanoma. The experiment in a line: Murine tumor model of B16F10 melanoma. To be noted: intravenous 20 mg/kg once daily. The data set is classed as in vivo, mouse. The procedure: To evaluate the efficacy of TRPM7 inhibitors in vivo, M6 was selected to for a pilot evaluation of its ability to reduce tumor formation in a murine tumor model of B16F10 melanoma and a RXF-393 human renal cell carcinoma xenograft model of tumor proliferation. […] For each tumor model, an appropriate number of cells were injected into the right flank (˜3-5 million cells per animal in 0.1 ml 50% matrigel/50% media). When tumor sizes reached 100-150 mg, animals were randomized into control (vehicle only), positive control or M6. M6 was given by intravenous injection to 20 mg/kg once daily. Tumors were measured and the weights were calculated by standard means.

The subject of data set [1] is H292 non small cell lung cancer. Put plainly: Cancer cell proliferation, H292. The following applies: for IC50: Homo sapiens. The data set is classed as cell-based. The procedure:
as §1, §2, §3

For data set [2], the system named is SW13 adrenal carcinoma cells. The experiment in a line: Cancer cell proliferation, SW13. The data set is classed as cell-based. The following applies: SW13, FIG. 79. The procedure: as §1, §2
Data Collection—For the cell proliferation studies, data from each experiment was collected and expressed as % Cell Growth using the following calculation: % Cell Growth=(ftest/fvehicle)×100 Where ftest is the luminescent signal of the tested sample, and fvehicle is the luminescence of the vehicle in which the drug is dissolved (or appropriate measure for the other viability/proliferation measures). […]

In the next data set the test system is HCT-116 colon cancer. The experiment in a line: Cancer cell proliferation, HCT-116. To be noted: for IC50: Homo sapiens. The data set is classed as cell-based. How it is done: as §1, §2, §3
In another data set the test system is Y79 retinoblastoma cells. Put plainly: Y79 retinoblastoma cells seeded on cultured retinal explants (ex vivo). It is filed as cell-based. How it is done: Retinal explants were surgically dissected and cultured by standard methods. One hundred thousand Y79 retinoblastoma cells were then seeded onto the retinas in culture and allowed to grow for 2 weeks on inserts in the presence or absence of 5 μM M6. Y79 cells were fluorescently labeled and intensity was counted (arbitrary fluorescence units). […] TRPM7 inhibitors may be useful in the reduction of tumor metastasis in addition to either reducing the proliferation or killing of cancer cells. FIG. 78 is a repetition of the experiment, observing the distribution of Y79 cells after 12 days of migration off the retina. The darker bars of each pair indicate fluorescence intensity of cells that have migrated off the retina.

The subject of the next data set is H9c2 cardiomyocytes. The experiment in a line: Toxicity on H9c2 cardiomyocytes, PI uptake after 72 hours. It is filed as cell-based, rat. The procedure:
To differentiate between an anti-proliferative effect of the TRPM7 inhibitors and cellular toxicity, the compounds were added to various ‘non-cancerous’ cell lines at the same concentrations and the percentage of PI uptake was measured after 72 hours.

The subject of the next data set is AMPA receptor. The experiment in a line: AMPA receptor currents in cultured neurons. The data set is classed as cell-based. How it is done:
(§4) To examine selectivity of a subset of these TRPM7 inhibitors, experiments were performed to determine whether TRPM7 antagonists cross-react with other ionic channels and receptors. […] From a therapeutic perspective, knowledge of cross-reactivity of candidate drugs could shed light on other ischemic mechanisms and raise awareness of potential side effects. M21 has no effect on voltage-sensitive Na+, and Ca2+ currents in cultured cortical neurons […] TRPM7-expressing HEK293 cells, but inhibits K+ currents by about 20% at membrane potentials of −10 mV. M21 had no effect on agonist-induced Ca2+ changes in HEK293 cells transfected with constructs for TRPM2, TRPM4, TRPM6, TRPV1, TRPC2 and TRPA1. M21 also has no effect on NMDA and AMPA receptor currents in cultured neurons. […] Similar experiments were performed with other TRPM7 inhibitors including M5 and M11.

Another data set relates to NMDA receptor. The experiment in a line: NMDA receptor currents in cultured neurons. It is filed as cell-based. How it is done: as §4
The target of another data set is T1, TRPM2 (Homo sapiens, UniProt O94759).
T1 construct: expressed in transfected cells; host or cells: HEK293
T1 sequence (O94759 whole entry): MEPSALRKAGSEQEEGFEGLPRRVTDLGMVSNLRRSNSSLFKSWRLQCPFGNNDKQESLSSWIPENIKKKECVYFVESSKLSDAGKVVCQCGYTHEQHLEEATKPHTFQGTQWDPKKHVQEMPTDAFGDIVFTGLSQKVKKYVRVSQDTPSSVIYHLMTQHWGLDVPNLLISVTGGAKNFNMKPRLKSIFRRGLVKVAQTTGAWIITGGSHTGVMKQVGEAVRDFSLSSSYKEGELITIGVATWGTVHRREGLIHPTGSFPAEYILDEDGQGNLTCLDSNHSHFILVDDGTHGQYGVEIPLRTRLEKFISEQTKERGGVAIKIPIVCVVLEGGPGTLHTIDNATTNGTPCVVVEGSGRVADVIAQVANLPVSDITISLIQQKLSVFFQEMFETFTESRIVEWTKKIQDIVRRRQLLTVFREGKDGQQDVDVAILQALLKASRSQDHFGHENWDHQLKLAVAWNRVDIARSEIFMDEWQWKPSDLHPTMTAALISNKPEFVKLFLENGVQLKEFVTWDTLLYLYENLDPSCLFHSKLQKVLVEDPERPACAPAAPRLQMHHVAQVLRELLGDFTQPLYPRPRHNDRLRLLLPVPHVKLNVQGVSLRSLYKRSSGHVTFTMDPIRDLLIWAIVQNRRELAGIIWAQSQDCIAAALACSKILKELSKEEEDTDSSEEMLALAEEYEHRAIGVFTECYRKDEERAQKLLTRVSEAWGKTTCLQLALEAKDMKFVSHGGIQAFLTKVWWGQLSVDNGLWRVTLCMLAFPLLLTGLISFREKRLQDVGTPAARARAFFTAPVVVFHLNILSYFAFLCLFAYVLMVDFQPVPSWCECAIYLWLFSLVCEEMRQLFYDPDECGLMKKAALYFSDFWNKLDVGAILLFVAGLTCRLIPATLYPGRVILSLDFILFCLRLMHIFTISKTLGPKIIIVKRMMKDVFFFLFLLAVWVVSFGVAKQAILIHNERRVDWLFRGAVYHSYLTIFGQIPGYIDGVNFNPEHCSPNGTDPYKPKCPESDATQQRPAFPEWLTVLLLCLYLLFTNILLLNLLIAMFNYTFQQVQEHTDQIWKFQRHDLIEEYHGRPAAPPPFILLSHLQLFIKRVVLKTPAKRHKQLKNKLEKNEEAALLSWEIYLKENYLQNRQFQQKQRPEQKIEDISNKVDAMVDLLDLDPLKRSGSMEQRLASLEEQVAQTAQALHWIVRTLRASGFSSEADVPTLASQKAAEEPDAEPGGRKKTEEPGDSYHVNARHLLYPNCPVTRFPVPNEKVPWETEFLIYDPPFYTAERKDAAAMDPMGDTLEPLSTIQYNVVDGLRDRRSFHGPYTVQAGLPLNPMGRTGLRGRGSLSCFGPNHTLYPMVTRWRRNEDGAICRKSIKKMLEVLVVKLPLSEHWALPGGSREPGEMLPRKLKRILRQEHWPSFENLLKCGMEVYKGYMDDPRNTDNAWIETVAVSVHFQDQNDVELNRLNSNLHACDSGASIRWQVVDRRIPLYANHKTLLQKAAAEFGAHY
The experiment in a line: Agonist-induced Ca2+ changes in HEK293 cells transfected with TRPM2. The data set is classed as cell-based. The procedure: as §4

In another data set the target is TRPM7 (Mus musculus, UniProt Q923J1). The experiment in a line: IC50 for TRPM7 (assay not stated). Set-up: expressed in transfected cells; host or cells: HEK293 cells, tet-induced TRPM7.
Data set [3] concerns raised intraocular pressure (IOP). The experiment in a line: Raised intraocular pressure model of acute glaucoma in rats. The following applies: intraocular injection, 80 mm Hg 1 hour, 7-14 days. The data set is classed as in vivo, rat. The procedure:
We next tested whether direct intraocular injection of M21 could reduce retinal damage evoked by raising the intraocular pressure (IOP) in rats (80 mm Hg 1 hour; Morrison J C. Elevated intraocular pressure and optic nerve injury models in the rat. J Glaucoma. 2005; 14:315-317). M21 was microinjected into the vitreous humor directly, to control for any blood-brain-barrier penetration issues. […] The compounds of this invention can be used for the treatment of retinal disorders. Preferably these compounds are delivered orally, as an injection (intravenous, intraocular), or administered topically. This model of glaucoma can be used to assess the different routes of administration for these compounds

The target of a further data set is T2, TRPA1 (Homo sapiens, UniProt O75762).
T2 construct: expressed in transfected cells; host or cells: HEK293
T2 sequence (O75762 whole entry, species assumed): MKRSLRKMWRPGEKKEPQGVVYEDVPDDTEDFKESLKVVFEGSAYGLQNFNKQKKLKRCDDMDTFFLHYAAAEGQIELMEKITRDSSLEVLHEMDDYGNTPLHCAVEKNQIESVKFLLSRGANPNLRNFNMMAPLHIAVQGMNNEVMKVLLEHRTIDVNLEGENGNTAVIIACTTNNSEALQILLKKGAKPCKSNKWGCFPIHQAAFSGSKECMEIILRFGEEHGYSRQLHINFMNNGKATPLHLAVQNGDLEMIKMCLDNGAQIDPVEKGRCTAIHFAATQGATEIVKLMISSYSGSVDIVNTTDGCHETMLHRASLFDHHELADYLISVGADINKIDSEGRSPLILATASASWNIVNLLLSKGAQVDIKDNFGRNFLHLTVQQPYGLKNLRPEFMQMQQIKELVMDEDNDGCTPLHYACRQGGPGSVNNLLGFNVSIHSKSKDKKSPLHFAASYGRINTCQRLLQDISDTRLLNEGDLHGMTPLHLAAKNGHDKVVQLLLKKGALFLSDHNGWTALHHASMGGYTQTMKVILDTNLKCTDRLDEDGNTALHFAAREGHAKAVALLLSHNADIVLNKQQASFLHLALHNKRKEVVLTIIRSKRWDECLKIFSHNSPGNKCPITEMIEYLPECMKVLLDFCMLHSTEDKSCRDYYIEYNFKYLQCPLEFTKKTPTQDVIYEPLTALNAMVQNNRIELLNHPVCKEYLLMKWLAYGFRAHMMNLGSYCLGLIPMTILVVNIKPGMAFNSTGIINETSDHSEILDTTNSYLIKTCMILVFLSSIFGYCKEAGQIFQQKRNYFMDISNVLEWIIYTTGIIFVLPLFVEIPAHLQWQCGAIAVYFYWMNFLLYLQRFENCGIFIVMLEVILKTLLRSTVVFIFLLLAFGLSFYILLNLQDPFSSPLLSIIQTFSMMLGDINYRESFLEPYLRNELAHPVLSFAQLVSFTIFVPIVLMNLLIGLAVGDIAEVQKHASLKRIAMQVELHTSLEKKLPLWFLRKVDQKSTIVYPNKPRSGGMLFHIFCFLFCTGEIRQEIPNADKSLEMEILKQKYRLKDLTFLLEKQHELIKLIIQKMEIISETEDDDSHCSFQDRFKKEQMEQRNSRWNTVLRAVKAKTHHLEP
Put plainly: Agonist-induced Ca2+ changes in HEK293 cells transfected with TRPA1. It is filed as cell-based. How it is done:
as §4

The next data set has as its target T3, TRPM4 (Homo sapiens, UniProt Q8TD43).
T3 construct: expressed in transfected cells; host or cells: HEK293
The experiment in a line: Agonist-induced Ca2+ changes in HEK293 cells transfected with TRPM4. It is filed as cell-based. How it is done: as §4

A further data set deals with T4, TRPV1 (Homo sapiens, UniProt Q8NER1).
T4 construct: expressed in transfected cells; host or cells: HEK293
T4 sequence (Q8NER1 whole entry, species assumed): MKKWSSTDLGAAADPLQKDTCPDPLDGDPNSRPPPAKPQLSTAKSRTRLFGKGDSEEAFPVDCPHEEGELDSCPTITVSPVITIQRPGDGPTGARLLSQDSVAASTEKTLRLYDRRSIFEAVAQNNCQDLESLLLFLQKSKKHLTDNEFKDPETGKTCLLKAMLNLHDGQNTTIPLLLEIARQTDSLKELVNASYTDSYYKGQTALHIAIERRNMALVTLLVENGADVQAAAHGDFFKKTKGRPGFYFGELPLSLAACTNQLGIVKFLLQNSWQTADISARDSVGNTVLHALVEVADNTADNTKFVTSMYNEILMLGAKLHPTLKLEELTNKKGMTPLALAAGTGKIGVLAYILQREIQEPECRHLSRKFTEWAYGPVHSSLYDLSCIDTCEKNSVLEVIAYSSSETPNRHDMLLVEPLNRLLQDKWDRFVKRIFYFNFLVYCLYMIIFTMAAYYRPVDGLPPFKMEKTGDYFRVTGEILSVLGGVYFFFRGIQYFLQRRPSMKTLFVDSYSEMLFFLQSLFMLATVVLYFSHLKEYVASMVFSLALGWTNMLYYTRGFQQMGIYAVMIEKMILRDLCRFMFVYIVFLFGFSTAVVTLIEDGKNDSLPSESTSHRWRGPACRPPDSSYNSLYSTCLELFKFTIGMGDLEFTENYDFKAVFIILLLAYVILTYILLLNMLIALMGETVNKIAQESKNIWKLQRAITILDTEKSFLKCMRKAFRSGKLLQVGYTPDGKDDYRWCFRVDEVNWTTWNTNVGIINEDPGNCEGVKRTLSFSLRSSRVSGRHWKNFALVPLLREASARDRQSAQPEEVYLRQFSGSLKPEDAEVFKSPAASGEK
Put plainly: Agonist-induced Ca2+ changes in HEK293 cells transfected with TRPV1. The data set is classed as cell-based. The procedure:
as §4

Where two headings read alike, the source gives them in different places.

T3 sequence (Q8TD43 whole entry, species assumed): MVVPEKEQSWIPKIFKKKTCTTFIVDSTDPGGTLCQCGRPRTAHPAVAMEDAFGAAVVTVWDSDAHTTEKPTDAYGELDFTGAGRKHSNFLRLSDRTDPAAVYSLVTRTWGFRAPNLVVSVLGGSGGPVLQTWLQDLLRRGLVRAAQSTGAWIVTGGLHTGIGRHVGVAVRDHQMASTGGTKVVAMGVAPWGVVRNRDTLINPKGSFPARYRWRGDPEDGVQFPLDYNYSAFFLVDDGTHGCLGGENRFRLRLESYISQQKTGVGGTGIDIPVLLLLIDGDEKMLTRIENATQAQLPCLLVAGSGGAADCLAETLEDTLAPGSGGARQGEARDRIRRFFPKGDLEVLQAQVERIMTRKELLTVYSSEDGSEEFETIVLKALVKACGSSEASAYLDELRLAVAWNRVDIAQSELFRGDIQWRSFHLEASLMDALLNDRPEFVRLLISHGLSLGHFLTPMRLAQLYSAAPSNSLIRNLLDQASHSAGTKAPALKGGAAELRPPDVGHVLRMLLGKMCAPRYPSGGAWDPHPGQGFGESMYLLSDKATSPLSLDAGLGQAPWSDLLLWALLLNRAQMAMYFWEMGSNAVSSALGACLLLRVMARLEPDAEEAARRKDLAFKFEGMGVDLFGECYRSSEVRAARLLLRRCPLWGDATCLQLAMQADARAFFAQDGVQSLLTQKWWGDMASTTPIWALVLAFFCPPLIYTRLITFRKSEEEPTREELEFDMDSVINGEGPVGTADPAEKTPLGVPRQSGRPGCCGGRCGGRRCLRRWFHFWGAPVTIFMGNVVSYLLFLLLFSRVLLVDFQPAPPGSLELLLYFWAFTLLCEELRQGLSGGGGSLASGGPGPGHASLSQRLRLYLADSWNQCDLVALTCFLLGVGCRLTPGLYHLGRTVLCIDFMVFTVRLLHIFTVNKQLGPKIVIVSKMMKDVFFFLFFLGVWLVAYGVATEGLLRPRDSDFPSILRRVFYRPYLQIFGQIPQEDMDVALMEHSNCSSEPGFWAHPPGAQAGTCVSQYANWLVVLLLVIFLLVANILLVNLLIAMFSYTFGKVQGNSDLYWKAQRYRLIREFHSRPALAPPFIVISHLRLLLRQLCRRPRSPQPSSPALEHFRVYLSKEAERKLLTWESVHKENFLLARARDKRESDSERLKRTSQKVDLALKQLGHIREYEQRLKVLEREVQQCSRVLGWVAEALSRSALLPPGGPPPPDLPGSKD

Turning to `COc1cc2c(cc1OC)C(c1sc3ccccc3c1Cl)=NCC2` [Compound M6], the IC50 in the data set on A375 melanoma (A-375, 72 h, A375, Exp 1, 72 hours, read-out: IC50) is 12.6 µM; in the data set on A375 melanoma (A-375, 72 h, A375, Exp 2, 72 hours, read-out: IC50), 14.2 µM; in the data set with A375 melanoma (A-375, A375, mean of Exp 1 and Exp 2, read-out: Mean IC50) it was 13.4 µM; in data set [1] (NCI-H292, 72 h, H292, Exp 1, 72 hours, read-out: IC50), 18.5 µM; in data set [1] (NCI-H292, 72 h, H292, Exp 2, 72 hours, read-out: IC50), 15.9 µM; in data set [1] (NCI-H292, H292, mean of Exp 1 and Exp 2, read-out: Mean IC50), 17.2 µM. The IC50 in the data set with HCT-116 colon cancer (HCT-116, 72 h, HCT-116, Exp 1, 72 hours, read-out: IC50) came to 14.7 µM; with HCT-116 colon cancer (HCT-116, 72 h, HCT-116, Exp 2, 72 hours, read-out: IC50), 17.2 µM; in the data set on HCT-116 colon cancer (HCT-116, HCT-116, mean of Exp 1 and Exp 2, read-out: Mean IC50), 16 µM. In addition, the melanoma tumor growth result with B16F10 melanoma is on record as “reduces tumor growth”. Also, the “Demonstrated Reduction of Proliferation at or below 10 μM Inhibitor concentration” value is “H292 non small cell lung cancer” in [1] (H292, >20% inhibition at 48-96 hours, MTT, SRB, luminescence or BrDU) and “HCT-116” with HCT-116 colon cancer (HCT-116, >20% inhibition at 48-96 hours, MTT, SRB, luminescence or BrDU). The “proliferation (BrDU incorporation)” value in data set [2] is given as “significantly reduce proliferation”. For the same compound, in the data set on Y79 retinoblastoma cells (1 μM, 12 days, FIG. 78), the “fluorescence of cells migrated off the retinal explant” value is listed as “significantly lower Y79 fluorescence off of the retinal explant”. For the same compound, in the data set on Y79 retinoblastoma cells (5 μM, 2 weeks), the “amount of Y79 cells on cultured retinas (fluorescence)” value is given as “reduce the amount of Y79 cells”. Further, the “ability of Y79 cells to migrate off of the retina” value in the data set on Y79 retinoblastoma cells (5 μM, 2 weeks, FIG. 77 panel B) is “significantly reduced the ability of Y79 cells to migrate off of the retina”.

Consider `O=C(Nc1ccc(F)cc1)C(Sc1ccc(Cl)cc1)c1ccccc1` (centres unmarked) [Compound M11], for which the “toxicity (PI uptake)” value is reported as “No toxicity” with H9c2 cardiomyocytes (5 μM) and “slight toxicity” in the data set on H9c2 cardiomyocytes (10 μM).

As to `Cc1c(Cc2ccc(Cl)c(Cl)c2)c(=O)oc2cc(O)ccc12` [Compound M21], in the data set on AMPA receptor, the “effect on AMPA receptor currents” value was “no effect”. Besides, in the data set on NMDA receptor, the “effect on NMDA receptor currents” value is “no effect”. The “effect on agonist-induced Ca2+ changes” value on TRPM2, on TRPA1, at TRPM4 and at TRPV1 was “no effect” in each case. Moreover, the IC50 against TRPM7 lay in the range of 1 to 2 µM. Moreover, in data set [3], the “retinal damage (histology)” value is recorded as “significant reduction in retinal damage”.

For the origin of these results see patent US8680137B2, “Agents and methods for treating ischemic and other diseases” (Nono Inc., priority 2009, dated 2014).
